The source of these data is patent US20100150938A1, “METHODS AND COMPOSITIONS FOR REDUCING INFLAMMATION AND TREATING INFLAMMATORY DISORDERS” (UNIVERSITY OF MASSACHUSETTS, priority 2008, published 2010).

The test system of data set [1] is ASC. Nature of the data set: ASC-CFP microglia cell line, ASC clustering. The data set is classed as cell-based, mouse. The settings on record: LPS-primed ASC-CFP microglia, 3 h after stimulation. The text has this:
Human ASC was fused to CFP using BgIII/BamHI in pEF-BOS-CFP. Subsequently, ASC-CFP was cloned using XhoI and NotI into a modified form of FUGW (FUGW-XN). FUGW-XN was modified by replacing GFP with a novel cut site that created XhoI and NotI compatible ends upon Esp3I digestion.
Lentivirus was produced in 293T cells transfected with the FUGW based expression vector coding for ASC-CFP, lentiviral packaging plasmid containing gag, pol and rev genes (pCMV-dR8.91) and envelope plasmid (VSV-G) using TransIT-LT1 transfection reagent (Minis Bio, MIR 2300/5/6) as previously described^46. One day after transfection, medium was replaced and after one additional day of culture supernatants containing the lentivirus was removed, filtered and used to infect immortalized microglia cells.
For experiments, ASC-CFP microglial cells were seeded in duplicate into confocal dishes, stimulated as indicated. A647-labeled cholera toxin subunit B (1:1000) was added to stain cellular membranes. Cells were subsequently imaged using confocal microscopy (Leica SP2 AOBS). Cells were fixed and 5 random fields were imaged in duplicate for quantification.
First, we stably transduced microglial cell cultures with a fusion protein of ASC and cyan fluorescent protein (CFP). ASC forms large oligomers upon its activation, leading to visible changes in the cytoplasmic fluorescence pattern of ASC-CFP. […]

For data set [2], the system named is mouse macrophages. The experiment in a line: IL-1β release from LPS-primed mouse macrophages (bone marrow-derived, B6-MCLs), ELISA. The data set is classed as cell-based. The following applies: LPS-primed bone marrow-derived macrophages of wild type mice, Aβ 1, 5 and 10 μM. How it is done: Bone marrow derived macrophages were generated as described (Severa, M et al. Journal of Biological Chemistry 281:26188-26195 (2006)). Human PBMCs were isolated by from whole blood of healthy volunteers by density gradient centrifugation. Lysis of red blood cells was performed using red blood cell lysis buffer (Sigma). Experiments in PBMCs and macrophages were carried out at a cell density of 2×10^6 cells/ml. All primary cells and cell lines except THP-1 cells were cultured in DMEM supplemented with L-glutamine, ciprofloxacin (Cellgro, Manassas, Va.) and 10% fetal calf serum (Hyclone, Logan, Utah). THP-1 cells were cultured in RPMI supplemented with 10% fetal calf serum (Hyclone), L-glutamine, sodium pyruvate (Cellgro), and ciprofloxacin. One day prior to stimulation, THP-1 cells were differentiated using 0.5 μM PMA for three hours, washed three times and plated for stimulation. All experiments that were performed for Western blot analysis were carried out in serum free DMEM medium. ATP stimulations were carried out at 5 mM one hour prior to harvesting supernatants.
Immortalized macrophage cell lines were generated using the previously described J2 recombinant retrovirus (carrying v-myc and v-raf/mil oncogenes) (Roberson, S. M. & Walker, W. S. Cellular immunology 116:341-351 (1988)). Briefly, primary bone marrow cells were incubated in L929 conditioned medium for 3-4 days to induce macrophage differentiation. Subsequently, cells were infected with J2 recombinant retrovirus. Cells were maintained in culture for 3-6 months slowly weaning off the percentage of L929 supernatant until cells were growing in the absence of conditioned medium.
Macrophage phenotype was verified by surface marker expression for CD11b and F480 as well as a range of functional parameters, including responsiveness to TLR ligands and bacterial uptake. Macrophage cell lines from wild-type (C57BL6), NALP3- and ASC-deficient mice were generated and are referred to as B6-MCLs, NALP3 -MCLs and ASC-MCLs.
Cell culture supernatants were assayed for IL-1β using ELISA kits from BD Biosciences (Franklin Lakes, NJ) according to the manufacturer's instructions. To measure intracellular IL-1β, cells were washed and subjected to three freeze thaw cycles in assay diluent.
Stimulations were carried out in serum free DMEM medium. Microglial cells and macrophages were primed with 100 U/ml IFNγ (Griess assay, TNF ELISA, real-time quantitative PCR) or 100 ng/ml ultrapure LPS (IL-1β ELISA, FLICA, ASC-CFP microglia cell line assay, Western blot) 1-3 h prior to stimulation with Aβ, revAβ, zymosan, ATP or transfection with dAdT.
In general terms: ELISA stands for enzyme-linked immunosorbent assay.

Data set [3] relates to CCL-3/MIP1 a, CCL4/MIP1β and CXCL2/MIP2. Nature of the data set: Chemokine mRNA in microglia (QRT-PCR). The settings on record: wild type microglial cells, Aβ 10 μM, 6 and 24 h. The format is cell-based, mouse. As to the method: Immortalized murine microglia were seeded in 6 well tissue culture plates, incubated in the absence or presence of 10 μM Aβ, washed with PBS and lysed in 1 mL TRIZOL reagent (Invitrogen). RNA was purified by organic extraction. 5 μg of RNA from each sample was reverse transcribed using multiscribe reverse transcriptase (Applied Biosystems). Oligonucleotide primers were designed using the Primer3 Input PCR primer design program (version 0.4.0.) and QRT-PCR experiments were performed using an iQ Real-Time PCR Detection System (Bio-Rad) and Optical System Software (Version 2.0, Bio-Rad). Relative quantification of mRNA expression was calculated by the comparative cycle method as described by the manufacturer.

Data set [4] deals with CAD mouse neuronal cells. The experiment in a line: Neurotoxicity assay, CAD mouse neuronal cells with or without microglia. The data set is classed as cell-based. How it is done:
For assessment of microglia-induced neurotoxicity, CAD mouse neuronal cells^47 were seeded on poly-L-lysine coated glass cover slips and grown in F12/DMEM supplemented with ciprofloxacin (Cellgro, Manassas, Va.) and 10% fetal calf serum (Hyclone, Logan, Utah) for 24 h. Differentiation was induced by withdrawal of serum for 48 h Immortalized microglia from wildtype or caspase-1^−/− mice were added in serum free medium to obtain mixed neuronal/microglial cultures and immediately stimulated. 72 h after stimulation with Aβ or media, cells were fixed, stained for the neuron-specific marker TuJ-1 and microglial marker CD11b, and imaged by confocal microscopy (Leica SP2 AOBS). Caspase-1 activity in microglial cells was assessed using the caspase-1 FLICA™ kit (Immunochemistry Technologies, Bloomington, Minn.) according to the manufacturer's instructions.

In the case of Aβ 1-42 peptide, the “formation of fluorescent ASC-CFP clusters” value in data set [1] is “brightly fluorescent clusters of ASC-CFP formed”. Moreover, the “IL-1β release induced by Aβ” value in data set [2] is “strong and dose-dependent IL-1β release”. For the same substance, the “gene expression of chemokines CCL-3/MIP1 a, CCL4/MIP1β and CXCL2/MIP2” value in data set [3] is given as “time-dependently upregulated”. Further, the neuronal cell death entry in data set [4] (mixed neuronal/microglial cultures with wild type microglia, Aβ 10 μM, 72 h) is “widespread neuronal cell death”. Further, in data set [4] (neuronal mono-culture), the “effects on neuronal cells” value is “only minimal morphological and quantitative effects”.
